Results taken from ChEMBL document CHEMBL6078722, “Structure-based development of N-Arylindole derivatives as Pks13 inhibitors against Mycobacterium tuberculosis” (Eur J Med Chem, 2025).
In brackets after ≈: the same amount, converted by molar mass. Activity calls are given as the source filed them. No cut-off for these calls is given here.

Columns and labels:
[1] = Metabolic stability in human liver microsomes assessed as compound remaining after 60 mins in presence of NADPH; format: ADME, Microsome; details: read-out: Stability
[2] = Metabolic stability in human liver microsomes assessed as half life; format: ADME, Microsome
[3] = Metabolic stability in human liver microsomes assessed as intrinsic clearance; format: ADME, Microsome; details: read-out: CLH
[4] = tested on: Mycobacterium tuberculosis; experiment: Antimicrobial activity against Mycobacterium tuberculosis H37Rv by MABA; format: functional
[5] = Metabolic stability in human liver assessed as intrinsic clearance; format: ADME, tissue-based; details: read-out: CLH
[6] = tested on: Mycobacterium tuberculosis; experiment: Antimicrobial activity against Mycobacterium tuberculosis H37Rv; format: functional
[7] = tested on: Mycobacterium tuberculosis; experiment: Antimicrobial activity against Mycobacterium tuberculosis H37Rv by microdilution method; format: functional
[8] = tested on: Mycobacterium tuberculosis; experiment: Antimicrobial activity against Mycobacterium tuberculosis H37Rv incubated for 7 days by alamar blue microplate reader assay; format: functional; details: 168 h, time 7 day
[9] = tested on: Mycobacterium tuberculosis; experiment: Antimicrobial activity against Mycobacterium tuberculosis H37Rv treated with compound diluted mouse serum at 1:8 to 1:64 serial dilution by MABA; format: functional, organism-based
[10] = tested on: Mycobacterium tuberculosis; experiment: Bacteriostatic activity against Mycobacterium tuberculosis; format: functional

Q: With `CC(=O)c1c(C)n(-c2ccc(Br)cc2)c2ccc(O)c(CN3CCCCC3)c12` as the molecule, how does the remaining at 1 h [1] read?
A: 47.3%

Q: What about the half-life [2] of the same molecule?
A: 0.967 h

Q: And the microsomal CLint [3]?
A: 23.9 µL/min/mg

Q: And the MIC90 [4]?
A: 0.28 µM (≈ 0.124 µg/mL)

Q: And the CLint scaled [5]?
A: 21.5 mL/min/kg

Q: Which MIC90 [4] does the source give for `Oc1ccc2c(c(-c3nnco3)cn2-c2ccc(Br)s2)c1CN1CC2(COC2)C1` here?
A: 8 µM (≈ 3.79 µg/mL)

Q: With `Oc1ccc2c(c(-c3nnco3)cn2-c2ccc(Br)s2)c1CN1CCC1` as the molecule, how does the MIC90 [4] read?
A: 1 µM (≈ 0.431 µg/mL)

Q: With `Oc1ccc2c(c(-c3nnco3)cn2-c2ccc(Br)cc2)c1CN1CCCCC1` as the molecule, how does the remaining at 1 h [1] read?
A: 55%

Q: What about the half-life [2] of the same molecule?
A: 1.1 h

Q: And the microsomal CLint [3]?
A: 21 µL/min/mg

Q: And the MIC90 [4]?
A: 0.07 µM (≈ 0.0317 µg/mL)

Q: And the CLint scaled [5]?
A: 18.9 mL/min/kg

Q: Which results are given for `CC(=O)c1c(C)n(-c2ccc(C3CCNCC3)cc2)c2ccc(O)c(CN3CCCCC3)c12`?
A: remaining at 1 h [1]: 11.3%; half-life [2]: 0.345 h; microsomal CLint [3]: 66.9 µL/min/mg; MIC90 [4]: 0.14 µM (≈ 0.0624 µg/mL); CLint scaled [5]: 60.2 mL/min/kg

Q: Which MIC90 [4] does the source give for `CC(=O)c1cn(-c2ccc(Br)cc2)c2ccc(O)c(CN3CCCCC3)c12` here?
A: 0.07 µM (≈ 0.0299 µg/mL)

Q: Which MIC [6] does the source give for `COc1ccc(OC)c(-c2ccc(-c3cn(CCc4ccc(C(=O)N(C)C)cc4)nn3)cn2)c1` here?
A: 0.25 µM (≈ 0.114 µg/mL)

Q: For `CC(=O)c1cn(-c2ccc(Br)s2)c2ccc(O)c(CN3CC4(COC4)C3)c12`, which MIC90 [4] is on record?
A: 2 µM (≈ 0.895 µg/mL)

Q: Which MIC90 [4] does the source give for `CC(=O)c1cn(-c2ccc(Br)s2)c2ccc(O)c(CN3CCC3)c12` here?
A: 0.62 µM (≈ 0.251 µg/mL)

Q: For `CC(=O)c1cn(-c2ccc(Br)cc2)c2ccc(O)c(CN3CCC(F)CC3)c12`, which MIC90 [4] is on record?
A: 0.28 µM (≈ 0.125 µg/mL)

Q: With `CC(=O)c1cn(-c2ccc(Br)cc2)c2ccc(O)c(CN3CCCC3)c12` as the molecule, how does the MIC90 [4] read?
A: 0.3 µM (≈ 0.124 µg/mL)

Q: Which MIC [6] does the source give for `CCOC(=O)c1c(-c2ccccc2)oc2ccc(O)c(CN3CCC(C)CC3)c12` here?
A: 2.3 µM (≈ 0.905 µg/mL)

Q: Which results are given for `Oc1ccc2c(c(-c3nnco3)cn2-c2ccc(Br)cc2)c1CN1CCCC1`?
A: remaining at 1 h [1]: 53%; half-life [2]: 1.09 h; microsomal CLint [3]: 21.2 µL/min/mg; MIC90 [4]: 0.07 µM (≈ 0.0308 µg/mL); CLint scaled [5]: 19 mL/min/kg

Q: With `COC(=O)c1c(NC(=O)c2c(F)c(F)c(F)c(F)c2F)sc2c1CCCCC2` as the molecule, how does the MIC [7] read?
A: 1 µM (≈ 0.419 µg/mL)

Q: With `O=c1cc(-c2ccc(O)cc2)oc2ccc(O)c(CN3CCC3)c12` as the molecule, how does the MIC [8] read?
A: 1.39 µM (≈ 0.449 µg/mL)

Q: Which MIC90 [4] does the source give for `CC(=O)c1cn(-c2cccs2)c2ccc(O)c(CN3CCC3)c12` here?
A: 3 µM (≈ 0.979 µg/mL)

Q: With `CC(=O)c1cn(-c2ccc(Br)cc2)c2ccc(O)c(CN3CCC3)c12` as the molecule, how does the MIC90 [4] read?
A: 0.08 µM (≈ 0.0319 µg/mL)

Q: With `CC(=O)c1ccc(-n2cc(C(C)=O)c3c(CN4CCC4)c(O)ccc32)s1` as the molecule, how does the MIC90 [4] read?
A: 5 µM (≈ 1.84 µg/mL)

Q: Which MIC90 [4] does the source give for `Oc1ccc2c(c(-c3nnco3)cn2-c2ccc(Br)cc2)c1CN1CC2(COC2)C1` here?
A: 1 µM (≈ 0.467 µg/mL)

Q: Which MIC90 [4] does the source give for `Oc1ccc2c(c(-c3nnco3)cn2-c2ccc(Br)cc2)c1CN1CCOCC1` here?
A: 4 µM (≈ 1.82 µg/mL)

Q: Which remaining at 1 h [1] does the source give for `CC(=O)c1cn(-c2ccc(-c3ccccc3)s2)c2ccc(O)c(CN3CCC3)c12` here?
A: 68.6%

Q: And the half-life [2]?
A: 2.17 h

Q: What about the microsomal CLint [3] of the same molecule?
A: 10.7 µL/min/mg

Q: What about the MIC90 [4] of the same molecule?
A: 0.04 µM (≈ 0.0161 µg/mL)

Q: What about the CLint scaled [5] of the same molecule?
A: 9.6 mL/min/kg

Q: For `CC(=O)c1cn(-c2ccc(Br)s2)c2ccc(O)c(CN3CCCCC3)c12`, which MIC90 [4] is on record?
A: 0.58 µM (≈ 0.251 µg/mL)

Q: For `Oc1ccc2c(c(-c3nnco3)cn2-c2ccc(Br)cc2)c1CN1CCC1`, which remaining at 1 h [1] is on record?
A: 61.7%

Q: What about the half-life [2] of the same molecule?
A: 1.67 h

Q: What about the microsomal CLint [3] of the same molecule?
A: 13.8 µL/min/mg

Q: And the MIC90 [4]?
A: 0.07 µM (≈ 0.0298 µg/mL)

Q: And the CLint scaled [5]?
A: 12.4 mL/min/kg

Q: And the Activity [9]?
A: Active

Q: With `CNC(=O)c1c(-c2ccc(O)cc2)oc2ccc(O)c(CC3CCNCC3)c12` as the molecule, how does the MIC [10] read?
A: 0.06 µM (≈ 0.0228 µg/mL)

Q: For `CNC(=O)c1cn(-c2ccc(Br)s2)c2ccc(O)c(CN3CCCCC3)c12`, which MIC90 [4] is on record?
A: 9 µM (≈ 4.04 µg/mL)

Q: Which MIC90 [4] does the source give for `Cc1ccc(-n2cc(-c3nnco3)c3c(CN4CCC4)c(O)ccc32)s1` here?
A: 3 µM (≈ 1.1 µg/mL)

Q: For `CC(=O)c1cn(-c2ccc(C)s2)c2ccc(O)c(CN3CCC3)c12`, which MIC90 [4] is on record?
A: 0.37 µM (≈ 0.126 µg/mL)

Q: With `CC(=O)c1cn(-c2cccnc2)c2ccc(O)c(CN3CCC3)c12` as the molecule, how does the MIC90 [4] read?
A: 100 µM (≈ 32.1 µg/mL)

Q: With `CC(=O)c1cn(-c2ccc(Br)cc2)c2ccc(O)c(CN3CC(F)C3)c12` as the molecule, how does the MIC90 [4] read?
A: 1 µM (≈ 0.417 µg/mL)

Q: For `CC(=O)c1cn(-c2ncccn2)c2ccc(O)c(CN3CCC3)c12`, which MIC90 [4] is on record?
A: 99 µM (≈ 31.9 µg/mL)

Q: With `CC(=O)c1cn(-c2cnccn2)c2ccc(O)c(CN3CCC3)c12` as the molecule, how does the MIC90 [4] read?
A: 199 µM (≈ 64.2 µg/mL)

Q: Which MIC [8] does the source give for `O=c1cc(-c2ccccc2O)oc2ccc(O)c(CN3CCC3)c12` here?
A: 1.39 µM (≈ 0.449 µg/mL)

Q: Which MIC90 [4] does the source give for `Oc1ccc2c(c(-c3nnco3)cn2-c2ccc(Br)cc2)c1CN1CC(F)C1` here?
A: 0.56 µM (≈ 0.248 µg/mL)
